Laboratory results: ChEMBL document CHEMBL3351418, “In vitro induction of apoptosis by isosclerone from marine-derived fungus Aspergillus fumigatus” (Bioorg Med Chem Lett, 2014)
Active and inactive are the calls of the source. The rule behind the calls is not given here.

Legend:
MCF7 [1] = assay: Induction of apoptosis in human MCF7 cells assessed as increase in mitochondrial Apaf-1 release at 20 to 60 uM after 24 hrs by Western blot analysis; assay type: functional, cell-based
[2] = target: Nuclear factor NF-kappa-B complex (Homo sapiens) (UniProt Q00653+P19838+Q04206); assay: Inhibition of NF-kappaB activation in human MCF7 cells; assay type: cell-based
Sequence of Nuclear factor NF-kappa-B complex (Homo sapiens) (P19838 whole entry, looked up): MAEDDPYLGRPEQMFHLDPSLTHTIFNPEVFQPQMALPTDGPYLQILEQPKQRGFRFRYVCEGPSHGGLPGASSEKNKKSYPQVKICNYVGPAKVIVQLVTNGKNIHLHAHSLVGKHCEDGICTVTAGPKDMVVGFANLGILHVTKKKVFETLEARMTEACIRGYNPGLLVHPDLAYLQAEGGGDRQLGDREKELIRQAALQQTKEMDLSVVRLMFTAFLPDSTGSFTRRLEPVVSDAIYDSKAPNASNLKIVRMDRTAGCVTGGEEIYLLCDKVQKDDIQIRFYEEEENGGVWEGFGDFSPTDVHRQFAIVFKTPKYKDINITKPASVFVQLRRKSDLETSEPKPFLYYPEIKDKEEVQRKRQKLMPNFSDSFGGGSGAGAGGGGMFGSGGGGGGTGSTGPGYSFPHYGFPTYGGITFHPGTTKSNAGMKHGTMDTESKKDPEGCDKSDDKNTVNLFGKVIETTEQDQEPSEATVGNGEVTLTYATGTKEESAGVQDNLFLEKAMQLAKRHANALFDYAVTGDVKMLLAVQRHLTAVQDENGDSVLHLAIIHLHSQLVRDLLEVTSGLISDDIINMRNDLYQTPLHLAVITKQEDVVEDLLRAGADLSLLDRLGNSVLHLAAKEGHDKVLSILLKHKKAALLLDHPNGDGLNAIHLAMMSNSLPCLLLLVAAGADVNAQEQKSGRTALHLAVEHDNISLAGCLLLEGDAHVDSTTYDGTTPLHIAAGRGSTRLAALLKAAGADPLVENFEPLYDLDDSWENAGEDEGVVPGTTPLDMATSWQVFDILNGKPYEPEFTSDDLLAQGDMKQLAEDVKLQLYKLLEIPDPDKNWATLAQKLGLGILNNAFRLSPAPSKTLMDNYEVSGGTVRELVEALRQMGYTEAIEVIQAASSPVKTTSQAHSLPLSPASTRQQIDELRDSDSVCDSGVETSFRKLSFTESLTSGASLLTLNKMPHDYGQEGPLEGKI
Sequence of Nuclear factor NF-kappa-B complex (Homo sapiens) (Q00653 whole entry, looked up): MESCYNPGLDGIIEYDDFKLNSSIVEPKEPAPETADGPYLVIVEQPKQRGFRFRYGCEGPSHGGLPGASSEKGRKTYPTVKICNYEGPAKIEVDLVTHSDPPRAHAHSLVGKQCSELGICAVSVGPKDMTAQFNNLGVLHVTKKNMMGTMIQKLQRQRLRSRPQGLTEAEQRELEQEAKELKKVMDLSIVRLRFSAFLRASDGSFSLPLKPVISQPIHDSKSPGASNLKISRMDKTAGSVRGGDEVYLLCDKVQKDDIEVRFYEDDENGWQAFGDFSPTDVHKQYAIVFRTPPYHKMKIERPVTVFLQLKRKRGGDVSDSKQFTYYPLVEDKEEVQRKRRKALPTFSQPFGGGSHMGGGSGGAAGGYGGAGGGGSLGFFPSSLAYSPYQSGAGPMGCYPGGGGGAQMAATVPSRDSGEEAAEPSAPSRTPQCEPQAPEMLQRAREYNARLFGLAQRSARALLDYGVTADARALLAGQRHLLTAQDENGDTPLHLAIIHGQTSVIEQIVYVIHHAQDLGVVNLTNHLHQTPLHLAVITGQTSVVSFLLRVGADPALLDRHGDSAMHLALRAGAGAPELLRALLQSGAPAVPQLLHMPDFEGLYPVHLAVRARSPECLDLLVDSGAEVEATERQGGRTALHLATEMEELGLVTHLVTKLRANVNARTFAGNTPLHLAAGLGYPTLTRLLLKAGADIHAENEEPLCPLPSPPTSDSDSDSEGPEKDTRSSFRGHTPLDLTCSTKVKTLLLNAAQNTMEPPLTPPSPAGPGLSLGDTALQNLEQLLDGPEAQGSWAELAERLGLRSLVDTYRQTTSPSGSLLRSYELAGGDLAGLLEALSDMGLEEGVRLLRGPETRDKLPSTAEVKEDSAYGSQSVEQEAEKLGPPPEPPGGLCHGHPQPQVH
Sequence of Nuclear factor NF-kappa-B complex (Homo sapiens) (Q04206 whole entry, looked up): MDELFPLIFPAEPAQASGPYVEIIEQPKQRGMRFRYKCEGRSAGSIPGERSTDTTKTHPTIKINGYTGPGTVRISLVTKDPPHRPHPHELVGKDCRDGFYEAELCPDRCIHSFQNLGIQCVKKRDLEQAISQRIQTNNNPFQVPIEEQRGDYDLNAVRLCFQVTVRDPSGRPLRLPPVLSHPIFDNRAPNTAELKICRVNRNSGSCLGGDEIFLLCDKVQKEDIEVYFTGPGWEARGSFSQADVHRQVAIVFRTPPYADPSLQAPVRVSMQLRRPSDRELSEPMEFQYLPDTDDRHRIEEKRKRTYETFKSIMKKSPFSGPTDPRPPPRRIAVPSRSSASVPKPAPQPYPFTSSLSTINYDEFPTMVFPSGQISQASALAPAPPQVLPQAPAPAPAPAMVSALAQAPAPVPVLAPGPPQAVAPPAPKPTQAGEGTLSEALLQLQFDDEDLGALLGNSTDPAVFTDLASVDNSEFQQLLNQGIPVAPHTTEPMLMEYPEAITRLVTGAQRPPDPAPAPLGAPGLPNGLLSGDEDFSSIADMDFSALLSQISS

MCF7 [3] = assay: Inhibition of P65 protein expression in human MCF7 cells after 24 hrs by Western blot analysis; assay type: functional, cell-based
[4] = target: T1, Inhibitor of nuclear factor kappa-B kinase subunit alpha (Homo sapiens) (UniProt O15111); assay: Inhibition of human IKKalpha activation in human MCF7 cells by Western blot analysis; assay type: cell-based
T1 sequence (whole entry): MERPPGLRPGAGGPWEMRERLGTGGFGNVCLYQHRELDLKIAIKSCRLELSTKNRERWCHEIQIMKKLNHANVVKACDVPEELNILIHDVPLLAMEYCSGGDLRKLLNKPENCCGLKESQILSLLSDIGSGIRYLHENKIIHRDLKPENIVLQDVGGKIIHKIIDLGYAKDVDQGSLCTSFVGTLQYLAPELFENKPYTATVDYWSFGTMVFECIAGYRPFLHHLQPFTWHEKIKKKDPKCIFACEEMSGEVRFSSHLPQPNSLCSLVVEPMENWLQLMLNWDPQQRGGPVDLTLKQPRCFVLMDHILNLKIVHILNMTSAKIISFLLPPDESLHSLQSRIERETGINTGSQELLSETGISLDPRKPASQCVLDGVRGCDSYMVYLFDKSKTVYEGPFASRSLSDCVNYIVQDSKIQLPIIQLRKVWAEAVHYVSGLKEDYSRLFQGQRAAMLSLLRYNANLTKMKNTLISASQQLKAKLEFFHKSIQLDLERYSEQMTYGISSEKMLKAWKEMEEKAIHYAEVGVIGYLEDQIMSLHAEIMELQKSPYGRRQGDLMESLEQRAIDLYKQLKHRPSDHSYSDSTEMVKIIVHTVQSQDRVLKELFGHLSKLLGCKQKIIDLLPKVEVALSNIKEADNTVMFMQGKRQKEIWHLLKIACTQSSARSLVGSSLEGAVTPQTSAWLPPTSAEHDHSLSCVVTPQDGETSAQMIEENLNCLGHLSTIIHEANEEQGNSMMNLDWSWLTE

[5] = target: T2, Inhibitor of nuclear factor kappa-B kinase subunit beta (Homo sapiens) (UniProt O14920); assay: Inhibition of human IKKbeta activation in human MCF7 cells by Western blot analysis; assay type: cell-based
T2 sequence (whole entry): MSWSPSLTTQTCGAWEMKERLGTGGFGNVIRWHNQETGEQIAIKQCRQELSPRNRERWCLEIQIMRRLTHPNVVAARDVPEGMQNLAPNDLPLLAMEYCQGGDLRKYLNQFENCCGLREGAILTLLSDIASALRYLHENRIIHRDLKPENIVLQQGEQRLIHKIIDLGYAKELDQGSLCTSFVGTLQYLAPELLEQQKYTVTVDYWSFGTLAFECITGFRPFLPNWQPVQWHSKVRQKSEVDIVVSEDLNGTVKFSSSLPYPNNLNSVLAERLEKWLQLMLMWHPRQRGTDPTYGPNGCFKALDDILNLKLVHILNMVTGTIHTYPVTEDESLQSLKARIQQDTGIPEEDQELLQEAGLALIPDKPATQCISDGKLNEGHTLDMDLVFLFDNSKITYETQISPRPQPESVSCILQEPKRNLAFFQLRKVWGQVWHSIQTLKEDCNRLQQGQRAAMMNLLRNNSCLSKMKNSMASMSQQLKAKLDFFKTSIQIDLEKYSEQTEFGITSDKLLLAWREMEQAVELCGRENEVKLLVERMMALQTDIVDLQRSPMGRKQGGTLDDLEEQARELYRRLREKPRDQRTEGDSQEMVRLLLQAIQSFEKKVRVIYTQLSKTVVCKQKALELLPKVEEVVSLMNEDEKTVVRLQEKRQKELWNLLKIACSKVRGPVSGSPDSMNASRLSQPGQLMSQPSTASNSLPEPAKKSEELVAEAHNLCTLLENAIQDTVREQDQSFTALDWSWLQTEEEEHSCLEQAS

MCF7 [6] = assay: Cytotoxicity against human MCF7 cells assessed as cell viability at 20 uM after 24 hrs by MTT assay (Rvb =100%); assay type: functional; settings: MCF7, 24 h, read-out: Activity
MCF7 [7] = assay: Cytotoxicity against human MCF7 cells assessed as cell viability at 20 uM after 36 hrs by MTT assay (Rvb =100%); assay type: functional; settings: MCF7, 36 h, read-out: Activity
MCF7 [8] = assay: Cytotoxicity against human MCF7 cells assessed as cell viability at 40 uM after 24 hrs by MTT assay (Rvb =100%); assay type: functional; settings: MCF7, 24 h, read-out: Activity
MCF7 [9] = assay: Cytotoxicity against human MCF7 cells assessed as cell viability at 40 uM after 36 hrs by MTT assay (Rvb =100%); assay type: functional; settings: MCF7, 36 h, read-out: Activity
MCF7 [10] = assay: Cytotoxicity against human MCF7 cells assessed as cell viability at 60 uM after 24 hrs by MTT assay (Rvb =100%); assay type: functional; settings: MCF7, 24 h, read-out: Activity
MCF7 [11] = assay: Cytotoxicity against human MCF7 cells assessed as cell viability at 60 uM after 36 hrs by MTT assay (Rvb =100%); assay type: functional; settings: MCF7, 36 h, read-out: Activity
[12] = target: Apoptosis regulator Bcl-2 (Homo sapiens, UniProt P10415); assay: Binding affinity to Bcl-2 (unknown origin)
Sequence of Apoptosis regulator Bcl-2 (P10415 whole entry): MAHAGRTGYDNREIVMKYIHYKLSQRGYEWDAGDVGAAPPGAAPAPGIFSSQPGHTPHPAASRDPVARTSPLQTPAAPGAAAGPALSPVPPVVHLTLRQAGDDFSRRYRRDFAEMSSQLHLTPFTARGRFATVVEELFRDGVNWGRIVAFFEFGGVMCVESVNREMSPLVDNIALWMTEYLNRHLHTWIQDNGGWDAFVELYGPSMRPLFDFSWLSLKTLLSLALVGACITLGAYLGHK

Caspase-3 = target: T3, Caspase-3 (Homo sapiens, UniProt P42574); assay: Binding affinity to procaspase-3 (unknown origin)
T3 sequence (P42574 whole entry): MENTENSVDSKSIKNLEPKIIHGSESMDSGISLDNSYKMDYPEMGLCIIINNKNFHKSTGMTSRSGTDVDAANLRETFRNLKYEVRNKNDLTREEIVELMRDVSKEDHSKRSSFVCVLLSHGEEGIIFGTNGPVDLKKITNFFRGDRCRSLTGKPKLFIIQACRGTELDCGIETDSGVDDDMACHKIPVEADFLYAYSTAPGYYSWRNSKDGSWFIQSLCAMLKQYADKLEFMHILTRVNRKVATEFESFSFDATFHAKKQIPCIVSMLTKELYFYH

MCF7 [13] = assay: Inhibition of P50 protein expression in human MCF7 cells after 24 hrs by Western blot analysis; assay type: functional, cell-based
[14] = target: T1, Inhibitor of nuclear factor kappa-B kinase subunit alpha (Homo sapiens); assay: Inhibition of human IKK expression in human MCF7 cells after 24 hrs by Western blot analysis; assay type: cell-based
MCF7 [15] = assay: Cytotoxicity against human MCF7 cells assessed as cell viability after 24 to 36 hrs by MTT assay; assay type: functional, cell-based
MCF7 [16] = assay: Cytotoxicity against human MCF7 cells assessed as cell viability at 20 uM by MTT assay; assay type: functional, cell-based; settings: TDE = time-dependent effect
MCF7 [17] = assay: Induction of apoptosis in human MCF7 cells assessed as increase in DNA damage after 24 hrs by Hoechst staining based inverted fluorescent microscopy; assay type: functional, cell-based
MCF7 [18] = assay: Induction of apoptosis in human MCF7 cells assessed as increase in DNA fragmentation […] by agarose gel electrophoresis; assay type: functional, cell-based
MCF7 [19] = assay: Downregulation of PI3K protein expression in human MCF7 cells at 20 to 60 uM by Western blot analysis; assay type: functional, cell-based
MCF7 [20] = assay: Downregulation of PI3K gene expression in human MCF7 cells at 20 to 60 uM by RT-PCR analysis; assay type: functional, cell-based
MCF7 [21] = assay: Downregulation of Akt protein expression in human MCF7 cells at 20 to 60 uM by Western blot analysis; assay type: functional, cell-based
MCF7 [22] = assay: Downregulation of Akt gene expression in human MCF7 cells at 20 to 60 uM by RT-PCR analysis; assay type: functional, cell-based
MCF7 [23] = assay: Effect on phosphorylation of Akt in human MCF7 cells at 20 to 60 uM by Western blot analysis; assay type: cell-based
MCF7 [24] = assay: Induction of apoptosis in human MCF7 cells assessed as up-regulation of Bax protein expression at 20 to 60 uM after 24 hrs by Western blot analysis; assay type: functional, cell-based
MCF7 [25] = assay: Induction of apoptosis in human MCF7 cells assessed as up-regulation of Bax gene expression at 20 to 60 uM after 24 hrs by RT-PCR analysis; assay type: functional, cell-based
MCF7 [26] = assay: Induction of apoptosis in human MCF7 cells assessed as down-regulation of Bcl-2 protein expression at 20 to 60 uM after 24 hrs by Western blot analysis; assay type: functional, cell-based
MCF7 [27] = assay: Induction of apoptosis in human MCF7 cells assessed as increase in caspase-3 expression by Western blot analysis; assay type: functional, cell-based
MCF7 [28] = assay: Induction of apoptosis in human MCF7 cells assessed as increase in caspase-8 expression by Western blot analysis; assay type: functional, cell-based
MCF7 [29] = assay: Induction of apoptosis in human MCF7 cells assessed as increase in caspase-9 expression by Western blot analysis; assay type: functional, cell-based
MCF7 [30] = assay: Induction of apoptosis in human MCF7 cells assessed as increase in caspase-3 gene expression by RT-PCR analysis; assay type: functional, cell-based
MCF7 [31] = assay: Induction of apoptosis in human MCF7 cells assessed as increase in caspase-8 gene expression by RT-PCR analysis; assay type: functional, cell-based
MCF7 [32] = assay: Induction of apoptosis in human MCF7 cells assessed as increase in caspase-9 gene expression by RT-PCR analysis; assay type: functional, cell-based
MCF7 [33] = assay: Induction of apoptosis in human MCF7 cells assessed as increase in mitochondrial cytochrome C release at 20 to 60 uM after 24 hrs by Western blot analysis; assay type: functional, cell-based

O=C1CC[C@H](O)c2cccc(O)c21
Activity (MCF7 [1]): Active
inhibition [2]: Dose-dependent effect
inhibition (MCF7 [3]): Dose-dependent effect
inhibition [4]: Active
inhibition [5]: Active
viability at 20 µM (MCF7 [6]): 97%
viability at 20 µM (MCF7 [7]): 87%
viability at 40 µM (MCF7 [8]): 89%
viability at 40 µM (MCF7 [9]): 66%
viability at 60 µM (MCF7 [10]): 70%
viability at 60 µM (MCF7 [11]): 50%
Ki [12]: 475 µM
Ki (Caspase-3): 732 µM
inhibition (MCF7 [13]): Dose-dependent effect
inhibition [14]: Active
inhibition (MCF7 [15]): Dose-dependent effect
inhibition (MCF7 [16]): tde
Activity (MCF7 [17]): Dose-dependent effect
Activity (MCF7 [18]): Dose-dependent effect
inhibition (MCF7 [19]): Active
inhibition (MCF7 [20]): Active
inhibition (MCF7 [21]): Active
inhibition (MCF7 [22]): Active
inhibition (MCF7 [23]): inactive
Activity (MCF7 [24]): Active
Activity (MCF7 [25]): Active
inhibition (MCF7 [26]): Active
Activity (MCF7 [27]): Dose-dependent effect
Activity (MCF7 [28]): Dose-dependent effect
Activity (MCF7 [29]): Dose-dependent effect
Activity (MCF7 [30]): Dose-dependent effect
Activity (MCF7 [31]): Dose-dependent effect
Activity (MCF7 [32]): Dose-dependent effect
Activity (MCF7 [33]): Active
